Data as given in patent US20050282154A1 (priority 2003, published 2005).

Tests used:
[1] = test system: SARS-CoV S protein-expressing 293 T cells and ACE-2-expressing 293 T cells; format: cell-based, human
[2] = test system: S1 domain of the SARS-CoV S protein; format: binding

soluble ACE-2
blocking of syncytia formation mediated by the SARS-CoV S protein [1]: partially blocked
blocking of association of S1-Ig (S1 domain) with Vero E6 cells [2]: blocked association
